The values below come from patent US20220009915A1, “CHEMICAL PROBES AND METHODS OF USE THEREOF” (City University of Hong Kong, priority 2020, published 2022).

What all share (format): biochemical
The target of one test is T1, Sirt2 (Homo sapiens, UniProt Q8IXJ6).
T1 construct: made in house
T1 sequence (Q8IXJ6 1-389): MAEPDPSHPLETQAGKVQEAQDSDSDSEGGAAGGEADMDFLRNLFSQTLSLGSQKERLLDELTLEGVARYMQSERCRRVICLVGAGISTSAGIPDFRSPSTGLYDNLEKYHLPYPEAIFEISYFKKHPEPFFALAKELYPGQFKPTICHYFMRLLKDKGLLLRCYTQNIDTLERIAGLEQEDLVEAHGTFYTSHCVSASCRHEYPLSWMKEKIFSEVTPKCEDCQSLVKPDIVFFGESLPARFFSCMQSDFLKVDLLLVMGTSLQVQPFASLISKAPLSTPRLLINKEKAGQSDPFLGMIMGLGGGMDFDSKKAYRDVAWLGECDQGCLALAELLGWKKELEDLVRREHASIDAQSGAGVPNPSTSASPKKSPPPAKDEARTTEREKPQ
Briefly: Fluorimeter delipoylation assay of probe KTlip with Sirt2. On the procedure: (§1) The probe KTlip following was first synthesized. The capacity of HDACs to recognize and remove the lipoyl group of KTlip was then examined by a fluorimeter assay. Briefly, KTlip was incubated with various HDACs at 37° C. in HEPES buffer (pH 8.0). The fluorescence of the enzymatic reactions was then measured accordingly. […] Further HPLC and MS analysis confirmed that the molecular weight of the newly generated peak corresponded to the expected tandem delipoylated/exchanged product (FIG. 4A,B). […] After enzymatic reaction with Sirt2, a shift of peak absorption from 380 nm to 480 nm was clearly observed. (FIG. 4C). Through detailed kinetic study, the first-order rate constant of the reaction was determined to be 0.013 min−1. […]
(§2) The probe KTlip was incubated with sirtuin and NAD+ at 37° C. in 20 mM HEPES buffer (pH 8.0) containing 150 mM NaCl, 1 mM MgCl2, and 2.7 mM KCl. […] When the enzymatic reaction was complete, the reaction was applied for absorption and fluorescence measurement. The parameter set for absorbance measurement was as follows: UV-visible light, collection region: 300-550 nm. The parameter set for fluorescence measurements was as follows: λex=480 nm, slit width: 5 nm, collection region: 510-600 nm.

The target in the next test is T2, Sirt1 (Homo sapiens, UniProt Q96EB6).
T2 construct: made in house
T2 sequence (Q96EB6 1-747): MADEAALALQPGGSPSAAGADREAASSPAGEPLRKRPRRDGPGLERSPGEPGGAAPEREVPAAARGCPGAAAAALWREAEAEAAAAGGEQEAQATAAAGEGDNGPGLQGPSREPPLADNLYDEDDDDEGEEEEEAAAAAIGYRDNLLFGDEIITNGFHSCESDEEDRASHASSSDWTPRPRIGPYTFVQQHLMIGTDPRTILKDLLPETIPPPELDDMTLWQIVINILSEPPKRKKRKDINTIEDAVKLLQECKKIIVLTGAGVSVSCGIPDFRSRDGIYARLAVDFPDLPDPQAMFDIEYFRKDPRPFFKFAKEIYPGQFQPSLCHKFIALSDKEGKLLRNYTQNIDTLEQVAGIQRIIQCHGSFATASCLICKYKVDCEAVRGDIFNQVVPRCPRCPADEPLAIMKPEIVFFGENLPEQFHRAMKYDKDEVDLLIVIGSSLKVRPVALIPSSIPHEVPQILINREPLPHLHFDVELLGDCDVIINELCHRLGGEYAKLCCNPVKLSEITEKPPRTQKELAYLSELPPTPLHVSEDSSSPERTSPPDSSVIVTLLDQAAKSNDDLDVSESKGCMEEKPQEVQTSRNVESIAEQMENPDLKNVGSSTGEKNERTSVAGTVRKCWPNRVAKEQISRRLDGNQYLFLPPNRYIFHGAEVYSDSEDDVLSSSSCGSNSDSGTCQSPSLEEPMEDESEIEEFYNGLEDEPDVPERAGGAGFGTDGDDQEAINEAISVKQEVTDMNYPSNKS
Briefly: Fluorimeter delipoylation assay of probe KTlip with Sirt1. As to conditions: KTlip incubated with Sirt1 at 37° C. in HEPES buffer (pH 8.0); compared with Sirt2. On the procedure:
as §1, §2

Another test concerns the target T3, Sirt3 (Homo sapiens, UniProt Q9NTG7).
T3 construct: made in house
T3 sequence (Q9NTG7 1-399): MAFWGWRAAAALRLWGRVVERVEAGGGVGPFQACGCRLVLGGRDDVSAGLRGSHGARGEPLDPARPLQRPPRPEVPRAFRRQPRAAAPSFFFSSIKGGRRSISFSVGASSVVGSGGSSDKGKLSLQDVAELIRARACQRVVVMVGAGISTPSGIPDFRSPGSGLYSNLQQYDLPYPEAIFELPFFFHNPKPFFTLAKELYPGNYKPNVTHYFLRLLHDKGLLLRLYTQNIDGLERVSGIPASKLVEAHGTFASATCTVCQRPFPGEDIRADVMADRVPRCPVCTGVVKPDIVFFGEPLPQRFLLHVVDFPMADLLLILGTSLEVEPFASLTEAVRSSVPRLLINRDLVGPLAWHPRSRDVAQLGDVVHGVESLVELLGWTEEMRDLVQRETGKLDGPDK
Description: Fluorimeter delipoylation assay of probe KTlip with Sirt3. As to conditions: KTlip incubated with Sirt3 at 37° C. in HEPES buffer (pH 8.0). As for the experimental part: as §1, §2

In a further test the target is T4, Sirt5 (Homo sapiens, UniProt Q9NXA8).
T4 construct: made in house
T4 sequence (Q9NXA8 37-310): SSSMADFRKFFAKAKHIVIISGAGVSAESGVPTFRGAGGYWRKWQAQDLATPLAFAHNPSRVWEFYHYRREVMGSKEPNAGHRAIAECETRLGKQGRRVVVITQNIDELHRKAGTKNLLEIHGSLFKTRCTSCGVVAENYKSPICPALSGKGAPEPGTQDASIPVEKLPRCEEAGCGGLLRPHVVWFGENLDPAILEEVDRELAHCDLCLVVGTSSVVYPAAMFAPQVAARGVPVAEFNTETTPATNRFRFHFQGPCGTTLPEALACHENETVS
Description: Fluorimeter delipoylation assay of probe KTlip with Sirt5. To be noted: KTlip incubated with Sirt5 at 37° C. in HEPES buffer (pH 8.0). As for the experimental part: as §1, §2

The next test has as its target T5, Sirt6 (Homo sapiens, UniProt Q8N6T7).
T5 construct: made in house
Briefly: Fluorimeter delipoylation assay of probe KTlip with Sirt6. To be noted: KTlip incubated with Sirt6 at 37° C. in HEPES buffer (pH 8.0). As for the experimental part:
as §1, §2

Test [1] addresses T6, HDAC8 (Homo sapiens, UniProt Q9BY41).
T6 sequence (Q9BY41 1-377): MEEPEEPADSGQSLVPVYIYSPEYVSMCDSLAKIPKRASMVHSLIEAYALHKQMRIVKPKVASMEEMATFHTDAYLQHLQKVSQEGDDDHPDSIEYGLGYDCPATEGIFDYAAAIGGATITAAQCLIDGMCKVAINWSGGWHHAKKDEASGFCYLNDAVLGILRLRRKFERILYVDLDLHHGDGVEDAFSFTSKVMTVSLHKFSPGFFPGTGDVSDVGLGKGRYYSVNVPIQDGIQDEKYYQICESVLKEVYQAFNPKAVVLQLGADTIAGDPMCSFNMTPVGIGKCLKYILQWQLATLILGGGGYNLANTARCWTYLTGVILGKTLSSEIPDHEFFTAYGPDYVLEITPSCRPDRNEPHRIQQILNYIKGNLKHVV
Briefly: Fluorimeter delipoylation assay of probe KTlip with HDAC8. To be noted: KTlip incubated with HDAC8 at 37° C. in HEPES buffer (pH 8.0). On the procedure: as §1, §2

Test [2] concerns the target T6, HDAC8. Description: HPLC analysis of the enzymatic reaction of KTlip with HDAC8. As to conditions: KTlip 40 μM, HDAC8 80 ng/μl, 20 mM HEPES pH 8.0, 2 hours reaction. As for the experimental part: FIG. 6 depicts HPLC analysis of the enzymatic reaction of KTlip (40 μM) with HDAC8 (80 ng/μl) in the reaction buffer (20 mM HEPES buffer at pH 8.0, 150 mM NaCl, 1 mM MgCl2 and 2.7 mM KCl).
The probe KTlip following was first synthesized. The capacity of HDACs to recognize and remove the lipoyl group of KTlip was then examined by a fluorimeter assay. Briefly, KTlip was incubated with various HDACs at 37° C. in HEPES buffer (pH 8.0). The fluorescence of the enzymatic reactions was then measured accordingly. […] Further HPLC and MS analysis confirmed that the molecular weight of the newly generated peak corresponded to the expected tandem delipoylated/exchanged product (FIG. 4A,B). […] After enzymatic reaction with Sirt2, a shift of peak absorption from 380 nm to 480 nm was clearly observed. (FIG. 4C). Through detailed kinetic study, the first-order rate constant of the reaction was determined to be 0.013 min−1. The Km value of KTlip obtained from the fluorescent method matched well with that from the traditional HPLC method (FIG. 5), underscoring that probe KTlip can serve as a useful tool for detecting enzymatic delipoylation activity.

T5 sequence (Q8N6T7 whole entry, species assumed): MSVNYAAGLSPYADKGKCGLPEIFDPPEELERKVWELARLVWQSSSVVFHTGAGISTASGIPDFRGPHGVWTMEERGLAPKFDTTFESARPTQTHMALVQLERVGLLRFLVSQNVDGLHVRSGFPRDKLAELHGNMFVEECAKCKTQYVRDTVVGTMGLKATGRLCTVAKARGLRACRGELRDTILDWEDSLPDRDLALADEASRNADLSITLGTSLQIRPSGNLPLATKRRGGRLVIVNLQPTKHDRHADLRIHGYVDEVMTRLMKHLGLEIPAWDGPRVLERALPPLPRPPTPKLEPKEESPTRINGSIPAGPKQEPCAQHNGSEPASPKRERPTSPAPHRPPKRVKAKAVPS

As for `CC(C)(C)OC(=O)N[C@@H](CCCCNC(=O)CCCCC1CCSS1)C(=O)NCCOCCOc1ccc([N+](=O)[O-])c2nonc12` (some centres unmarked) [KTlip], the fluorescence increase was 60 fold at Sirt2 (KTlip incubated with Sirt2 at 37° C. in HEPES buffer (pH 8.0), NAD+, λex 480 nm); “did not show a noticeable fluorescence increase” on Sirt3; “did not show a noticeable fluorescence increase” on Sirt5; “did not show a noticeable fluorescence increase” on Sirt6; “did not show a noticeable fluorescence increase” on HDAC8 [1]. Besides, the “first-order rate constant of the reaction” value at Sirt2 (delipoylation of KTlip by Sirt2, fit of fluorescence data to 1−exp(−kt)) turned out to be 0.013 min⁻¹. Further, the fluorescence signal result on Sirt1 was “much lower fluorescence signal”. In addition, the “delipoylated product (HPLC)” value at HDAC8 [2] was “no delipoylated product observed”.
